System: rats
Assay type: in vivo, rat
Conditions: positive control; versus mean on baseline days
Procedure: The standard test in rat to measure anxiolytic effect (Geller conflict procedure) was designed by Geller and Seifter and modified by Pollard and Howard (Geller & Seifter, Psychophamracologia 1:482-492 (1960: Pollard & Howard, Psychopharmacology 62:117-121 (1979)). The anxiety-reducing effect of a KCNQ2/3 channel opener was measured using the Geller conflict procedure in rats. Rats are trained to press a lever to receive food pellets during daily 1 hour sessions. The sessions are divided into punished and unpunished phases. During the four, three-minute punished periods, a light signals that each lever press will produce both a pellet and a foot shock (punishment), which reduces lever pressing. The number of punished lever presses on test days (when test compound is administered) is compared to the mean on baseline days. […]

CNC1=Nc2ccc(Cl)cc2C(c2ccccc2)=[N+]([O-])C1 [chlordiazepoxide]
increase in punished lever pressing: > 50%
